Tested on: Tumorart P 388 (Leukämie)
Assay: Cytostatic activity: survival of mice with i.p. implanted P 388 leukemia (NCI protocol 1200)
Assay type: in vivo, Mäusen
Details: 9-day treatment, P 388 set i.p. with 10⁶ Zellen/Maus, untreated mean survival 10 days
Excerpt: Die nachfolgenden Versuche wurden durchgeführt nach Testvorschriften des National Cancer Institute Bethesda, Maryland 200014, veröffentlicht in "Cancer Chemotherapy Reports" Part. 3, Sept. 1972, Vol. 3, Nr. 2.
Die Substanz wurde als wäßrige 1 %ige Injektionslösung unmittelbar vor der Applikation frisch hergestellt.
Bei Mäusen wurden gemäß Protokoll 1200 (S. 91 c) die Tumorart P 388 (Leukämie) i.p. mit 10⁶ Zellen/Maus gesetzt. Die unbehandelten Tiere hatten eine mittlere Überlebensdauer von 10 Tagen.
Mit den behandelten Testtieren, die einer 9-tägigen i.p. Behandlung mit der in Tabelle 1 angegebenen Dosis unterworfen wurden, wurde eine signifikante Verlängerung der Lebensdauer gegenüber der mittleren Überlebensdauer der nicht mit dem Wirkstoff behandelten Tiere erzielt. Die Verlängerungsrate T/C in Abhängigkeit von der Dosierung des Wirkstoffes ist nachtstehend tabellarisch zusammengestellt.

Q: How did the “Verlängerungsrate T/C in %” value (Dosis 15 mg/kg) turn out when `O=P(CC1CO1)(CC1CO1)CC1CO1` (stereo not drawn) [Triglycidylphosphinoxid] was run?
A: 243%

Q: What about the “Verlängerungsrate T/C in %” value (Dosis 3,75 mg/kg) of the same compound?
A: 163%

Q: What about the “Verlängerungsrate T/C in %” value (Dosis 7,5 mg/kg) of the same compound?
A: 176%
